Laboratory results as given in PMC11963559, “Identification of novel thiazole derivatives as flaviviral protease inhibitors effective against Dengue (DENV2) and Japanese encephalitis viruses” (Antimicrobial Agents and Chemotherapy, 2025).

Key:
Type in all cases: cell-based
[1] = test system: JEV; experiment: Time of drug addition assay, JEV in BHK-21 cells; conditions: JEV MOI 0.1, BHK-21, 10 µM, viral RNA at 24 hpi
Description: Considering the mode of action of the compounds 3au and 3aq, they should satisfy this criteria. To evaluate this potential, time of addition experiment was conducted for both compounds to inhibit JEV infection. BHK-21 cells and the virus were pre-treated for 3 h with 10 µM of compounds followed by infection and subsequent incubation in presence of the same (pre + during + post). Alternatively, the compounds (10 µM) were added either during the infection (during + post) or at different times post-infection as indicated (Fig. 9C and D). Virus amplification was measured at 24 hpi by measuring viral RNA accumulation as described above. […] This sustained inhibition indicates a potential therapeutic window for intervention, highlighting the compounds' ability to impede viral replication after initial infection. […] Together, our data not only established the antiviral activity of the compounds against DENV2 and JEV but also pointed out the mechanism of action of these compounds during the specific steps of the virus life cycle.
BHK-21 cells were seeded in a 12-well cell culture plate at a density of (0.5 × 10^6 cells/well). Upon 85%–90% confluency, cells were infected with JEV virus at an MOI of 0.1. Cells were incubated for 1.5 h at 37 °C. […] Cells were harvested at 24 hpi, and the viral genomic RNA levels were quantified using qRT-PCR.

[2] = test system: DENV2; experiment: DENV2 replication in BHK-21 cells, viral RNA by qRT-PCR; conditions: for SI, selectivity index (CC50/IC50): DENV2, BHK-21 cells, qRT-PCR IC50; for IC50: Dengue virus, DENV2, BHK-21, read-out: IC50, reduction of DENV2 viral RNA
Description: First, cytotoxic impact of these compounds was evaluated using MTT assay. […] Subsequently, we evaluated the effectiveness of these compounds in inhibiting DENV2 replication. BHK-21 cells were infected with the virus in presence of increasing concentration of these compounds, and harvested at 24 hpi. The virus replication rate was assessed by quantifying the copy number of viral genomic RNA using quantitative real-time PCR (qRT-PCR).
BHK-21 cells were seeded in a 24-well cell culture plate at a density of (0.25 × 10^6 cells/well) with regular growth medium containing DMEM + 10% FBS 1 day prior to infection in triplicate. Once the cells reached 85%–90% confluence, they were infected with DENV2 and JEV virus inoculum comprising DMEM + 2% FBS and 10 µM of the compound at an MOI of 0.1. Cells were incubated for 1.5 h at 37 °C with the virus-compound inoculum, with gentle rocking every 10 min to ensure even coverage and prevent the cellular monolayer from drying. Finally, the inoculum was replenished with fresh culture media comprising DMEM + 2% FBS and the compound, and then kept in an incubator in a humidified chamber at 37 °C until harvest (18 h). The cell culture supernatant was aspirated and washed with PBS, and the cellular monolayer was used for viral RNA isolation.
Total cellular RNA was extracted from BHK-21 cells using TRIzol reagent, according to the manufacturer’s instructions (Ambion Life Technologies, USA). RNA quantity and integrity were determined prior to use on a NanoDrop spectrophotometer (Thermo Fisher Scientific). Then, 1 µg of total RNA from each experimental sample was used to synthesize cDNA by reverse transcriptase (RT) by incubating the RNAs with Moloney murine leukemia virus (M-MuLV) RT, with specific RT primer, 5′-[…]-3′ (Tm = 63 °C), and deoxynucleoside triphosphates (dNTPs) (New England Biolabs) at 42 °C for 50 min, followed by inactivation at 70 °C for 15 min.
To quantify the viral RNA copy number, quantitative RT-PCR (qRT-PCR) was performed in duplicate using iTaq Universal SYBR Green Supermix (Bio-Rad). The cDNAs used for qPCR analysis were prepared using Power SYBR Green PCR Master Mix (Bio-Rad, #172–5125) in a QuantStudio5 Applied Biosystems real-time PCR system. For qPCR amplification of the JEV amplicon size of 202 bp, the sequences of the forward and reverse primer pairs used were 5′-[…]-3′ (Tm = 65 °C) and 5′-[…]-3′ (Tm = 63 °C) and for DENV amplicon of 163 bp, the sequences of the forward and reverse primer pair used were 5′-[…]-3′ (Tm = 61 °C) and 5′-[…]-3′ (Tm = 59 °C). […] Delta Ct for both control and compound-treated samples was determined and subsequently analyzed by determining the delta Ct to determine the mRNA expression of target genes in control vs treated samples.

[3] = test system: JEV; experiment: JEV progeny virus titer in BHK-21 supernatant (TCID50 assay); conditions: BHK-21, read-out: IC50 of viral titer reduction (called TCID50 in the source)
Description: To this end, we assessed the antiviral activity of shortlisted compounds by evaluating their ability to inhibit progeny virus production. BHK-21 cells were infected with DENV2 and JEV (MOI: 0.1) in the presence of different concentrations of 3aq or 3au or with DMSO, and viral titer was determined in the supernatants harvested at 18 hpi. Compound 3aq caused the maximum reduction of viral titer showing TCID50 of 5.18 ± 0.87 and 2.29 ± 0.50 µM against DENV2 and JEV, respectively (Fig. 8B and D).
During DENV2 and JEV infection, the viral supernatant was collected and used in the TCID50 assay to determine the viral titer. Then, 3 × 10^4 BHK-21 cells per well were seeded in a 96-well cell culture microtiter plate the day before titration. The virus stock was diluted with infection media (DMEM + 2% FBS) to attain virus dilutions of 1 × 10^−2 to 6.4 × 10^−7 in 12 parallels, with the last column of the 96-well plate serving as virus-free cell control. On the day of the assay, when the cell had reached 90%–95% confluency, the growth medium was aspirated using a multichannel pipette, and 100 µL of virus inoculum of different dilutions was transferred to each well, keeping the last well only in infection media without virus. The cells were then incubated at 37 °C in a humidified 5% CO2 chamber. […] TCID50 was calculated using the Spearman and Karber methods.

Row | SMILES | inhibition of viral replication by time of addition [1] | SI, selectivity index (CC50/IC50) [2] | IC50 [2] | IC50 [3]
1 | COc1ccc(-c2csc(N/N=C(\C)c3ccc(O)cc3)n2)cc1 [3aq] | significantly inhibited viral replication even when added at 9 hpi | 18.35 | 4.47 ± 0.41 µM | 2.29 ± 0.5 µM
2 | COc1ccc(-c2csc(N/N=C(\C)c3cc(O)cc(O)c3)n2)cc1 [3au] | significantly inhibited viral replication even when added at 9 hpi | 10.38 | 7.38 ± 0.6 µM | 2.72 ± 0.24 µM
